Measured values reported in PubChem BioAssay AID2060901 (Molecular Pharmacology Branch, DTP, NCI, 2025).

Test system: 422866-222-R5-J1-PDC complex spheroids viability
Assay: Anticancer human tumor 422866-222-R5-J1-PDC patient-derived pancreatic adenocarcinoma cell line growth inhibition [RAS]
Settings: for IC50: curve of first compound; for viability, T/C: stronger effect = lower value
In short: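 Agents were tested in combination matrices in half-log decrements from a top concentration at or near clinical Cmax (10 microM if undetermined). Targets were multi-cell spheroids of tumour lines plus HUVEC and MSC stromal cells.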
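Also: spheroids exposed to compounds for 7 days.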
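For viability, T/C in this document: 100% = DMSO vehicle control viability.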

SMILES: C=CC(=O)N1CCN(c2nc(OCC3CCCN3C)nc3c(F)c(-c4nc(N)cc(C)c4C(F)(F)F)c(Cl)cc23)C(C)C1 (centres undefined) + CCn1c(-c2cc(N3CCN(C)CC3)cnc2C(C)OC)c2c3cc(ccc31)-c1csc(n1)CC(NC(=O)C1CC1C)C(=O)N1CCCC(N1)C(=O)OCC(C)(C)C2
- IC50 (second compound 0.000949 µM): < 3.16 nM
- IC50 (second compound 0.003 µM): < 3.16 nM
- IC50 (second compound 0.00949 µM): < 3.16 nM
- IC50 (second compound 0.03 µM): < 3.16 nM
- IC50 (second compound 0.0949 µM): < 3.16 nM
- IC50 (second compound 0.3 µM): < 3.16 nM
- viability, T/C (second compound 0.000949 µM, first compound 0.00316 µM): 19.5%
- viability, T/C (second compound 0.000949 µM, first compound 0.01 µM): 18.6%
- viability, T/C (second compound 0.000949 µM, first compound 0.0316 µM): 16.9%
- viability, T/C (second compound 0.000949 µM, first compound 0.1 µM): 18.5%
- viability, T/C (second compound 0.000949 µM, first compound 0.316 µM): 15.8%
- viability, T/C (second compound 0.000949 µM, first compound 1 µM): 20.3%
- viability, T/C (second compound 0.003 µM, first compound 0.00316 µM): 19.6%
- viability, T/C (second compound 0.003 µM, first compound 0.01 µM): 15%
- viability, T/C (second compound 0.003 µM, first compound 0.0316 µM): 19.8%
- viability, T/C (second compound 0.003 µM, first compound 0.1 µM): 18.2%
- viability, T/C (second compound 0.003 µM, first compound 0.316 µM): 17.9%
- viability, T/C (second compound 0.003 µM, first compound 1 µM): 20.6%
- viability, T/C (second compound 0.00949 µM, first compound 0.00316 µM): 18.3%
- viability, T/C (second compound 0.00949 µM, first compound 0.01 µM): 19.1%
- viability, T/C (second compound 0.00949 µM, first compound 0.0316 µM): 17.4%
- viability, T/C (second compound 0.00949 µM, first compound 0.1 µM): 14.8%
- viability, T/C (second compound 0.00949 µM, first compound 0.316 µM): 17.7%
- viability, T/C (second compound 0.00949 µM, first compound 1 µM): 18%
- viability, T/C (second compound 0.03 µM, first compound 0.00316 µM): 17.1%
- viability, T/C (second compound 0.03 µM, first compound 0.01 µM): 15.9%
- viability, T/C (second compound 0.03 µM, first compound 0.0316 µM): 15.7%
- viability, T/C (second compound 0.03 µM, first compound 0.1 µM): 17.9%
- viability, T/C (second compound 0.03 µM, first compound 0.316 µM): 18.2%
- viability, T/C (second compound 0.03 µM, first compound 1 µM): 22.9%
- viability, T/C (second compound 0.0949 µM, first compound 0.00316 µM): 19.4%
- viability, T/C (second compound 0.0949 µM, first compound 0.01 µM): 16.9%
- viability, T/C (second compound 0.0949 µM, first compound 0.0316 µM): 15.9%
- viability, T/C (second compound 0.0949 µM, first compound 0.1 µM): 19%
- viability, T/C (second compound 0.0949 µM, first compound 0.316 µM): 21.3%
- viability, T/C (second compound 0.0949 µM, first compound 1 µM): 21.5%
- viability, T/C (second compound 0.3 µM, first compound 0.00316 µM): 19.5%
- viability, T/C (second compound 0.3 µM, first compound 0.01 µM): 22.9%
- viability, T/C (second compound 0.3 µM, first compound 0.0316 µM): 21.7%
- viability, T/C (second compound 0.3 µM, first compound 0.1 µM): 20.2%
- viability, T/C (second compound 0.3 µM, first compound 0.316 µM): 19.5%
- viability, T/C (second compound 0.3 µM, first compound 1 µM): 24.9%

SMILES: CC1(C)CCC(Nc2ncc(C(F)(F)F)c(-c3c[nH]c4c(P(C)(C)=O)c(C#N)ccc34)n2)CN1 (centres undefined) + CCn1c(-c2cc(N3CCN(C)CC3)cnc2C(C)OC)c2c3cc(ccc31)-c1csc(n1)CC(NC(=O)C1CC1C)C(=O)N1CCCC(N1)C(=O)OCC(C)(C)C2
- IC50 (second compound 0.000949 µM): < 0.949 nM
- IC50 (second compound 0.003 µM): < 0.949 nM
- IC50 (second compound 0.00949 µM): < 0.949 nM
- IC50 (second compound 0.03 µM): < 0.949 nM
- IC50 (second compound 0.0949 µM): < 0.949 nM
- IC50 (second compound 0.3 µM): < 0.949 nM
- viability, T/C (second compound 0.000949 µM, first compound 0.000949 µM): 30.6%
- viability, T/C (second compound 0.000949 µM, first compound 0.003 µM): 29.6%
- viability, T/C (second compound 0.000949 µM, first compound 0.00949 µM): 32.5%
- viability, T/C (second compound 0.000949 µM, first compound 0.03 µM): 31.7%
- viability, T/C (second compound 0.000949 µM, first compound 0.0949 µM): 30%
- viability, T/C (second compound 0.000949 µM, first compound 0.3 µM): 33.4%
- viability, T/C (second compound 0.003 µM, first compound 0.000949 µM): 24.3%
- viability, T/C (second compound 0.003 µM, first compound 0.003 µM): 24%
- viability, T/C (second compound 0.003 µM, first compound 0.00949 µM): 27.2%
- viability, T/C (second compound 0.003 µM, first compound 0.03 µM): 27.5%
- viability, T/C (second compound 0.003 µM, first compound 0.0949 µM): 26.9%
- viability, T/C (second compound 0.003 µM, first compound 0.3 µM): 31.3%
- viability, T/C (second compound 0.00949 µM, first compound 0.000949 µM): 21.2%
- viability, T/C (second compound 0.00949 µM, first compound 0.003 µM): 21.1%
- viability, T/C (second compound 0.00949 µM, first compound 0.00949 µM): 23.1%
- viability, T/C (second compound 0.00949 µM, first compound 0.03 µM): 21.6%
- viability, T/C (second compound 0.00949 µM, first compound 0.0949 µM): 25.4%
- viability, T/C (second compound 0.00949 µM, first compound 0.3 µM): 24.8%
- viability, T/C (second compound 0.03 µM, first compound 0.000949 µM): 22.2%
- viability, T/C (second compound 0.03 µM, first compound 0.003 µM): 21.2%
- viability, T/C (second compound 0.03 µM, first compound 0.00949 µM): 25.4%
- viability, T/C (second compound 0.03 µM, first compound 0.03 µM): 23.5%
- viability, T/C (second compound 0.03 µM, first compound 0.0949 µM): 25%
- viability, T/C (second compound 0.03 µM, first compound 0.3 µM): 22.8%
- viability, T/C (second compound 0.0949 µM, first compound 0.000949 µM): 19.1%
- viability, T/C (second compound 0.0949 µM, first compound 0.003 µM): 22.9%
- viability, T/C (second compound 0.0949 µM, first compound 0.00949 µM): 24.6%
- viability, T/C (second compound 0.0949 µM, first compound 0.03 µM): 20.7%
- viability, T/C (second compound 0.0949 µM, first compound 0.0949 µM): 23.1%
- viability, T/C (second compound 0.0949 µM, first compound 0.3 µM): 28.9%
- viability, T/C (second compound 0.3 µM, first compound 0.000949 µM): 19.7%
- viability, T/C (second compound 0.3 µM, first compound 0.003 µM): 22.6%
- viability, T/C (second compound 0.3 µM, first compound 0.00949 µM): 26.8%
- viability, T/C (second compound 0.3 µM, first compound 0.03 µM): 24.1%
- viability, T/C (second compound 0.3 µM, first compound 0.0949 µM): 28.1%
- viability, T/C (second compound 0.3 µM, first compound 0.3 µM): 28.1%
